Source: US10800772B2 (Gilead Sciences, Inc., priority 2016, dated 2020)
Read-outs that look alike come from different tables or passages of the source.

Tests used:
Type in all cases: cell-based, HIV-1
HIV-IIIb (wildtype) = experiment: Antiviral assay in MT4 cells, HIV-IIIb wildtype; settings: read-out: WT EC50
How it was run: (§1)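 Luminescence from CellTiter-Glo after a 5-day culture served as the measure of HIV-1 replication in MT4 cells. Cells were infected beforehand for 3 h with HIV-IIIb (0.004 m.o.i.) and exposed to ten 3-fold compound dilutions. EC50 corresponds to a 50% signal decrease.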

HIV-IIIb IN T174I BT = experiment: Antiviral assay in MT4 cells, HIV-IIIb IN T174I BT virus (from viral breakthrough)
How it was run: as §1

HIV-IIIb IN T174I DE = experiment: Antiviral assay in MT4 cells, HIV-IIIb IN T174I DE virus (from dose escalation passaging)
How it was run: as §1

[1] = Human immunodeficiency virus 1, IIIB, MT4, 120 h
[2] = Human immunodeficiency virus 1, IIIB, MT4, 120 h, read-out: T174I BT EC50, MT4 cells, HIV-IIIb IN T174I BT (viral breakthrough), 5 days, CellTiter-Glo
[3] = Human immunodeficiency virus 1, IIIB, MT4, 120 h, read-out: T174I DE EC50, MT4 cells, HIV-IIIb IN T174I DE (dose escalation), 5 days, CellTiter-Glo

Structure (SMILES) | EC50 (HIV-IIIb (wildtype); [1]) [nM] | EC50 (HIV-IIIb IN T174I BT; [2]) [nM] | EC50 (HIV-IIIb IN T174I DE; [3]) [nM] | EC50 (HIV-IIIb (wildtype); MT4 cells, HIV-IIIb wildtype, 5 days, CellTiter-Glo) [nM] | EC50 (HIV-IIIb IN T174I BT; read-out: T174I BT EC50, MT4 cells, HIV-IIIb IN T174I BT (viral breakthrough), 5 days, CellTiter-Glo) [nM] | EC50 (HIV-IIIb IN T174I DE; read-out: T174I DE EC50, MT4 cells, HIV-IIIb IN T174I DE (dose escalation), 5 days, CellTiter-Glo) [nM] | EC50 (HIV-IIIb (wildtype); Human immunodeficiency virus 1, 120 h, MT4 cells, HIV-IIIb wildtype, 5 days, CellTiter-Glo) [nM]
COCC(=O)N1CCC(c2nn(C)c3ccc(-c4nc5cc(C)c([C@H](OC(C)(C)C)C(=O)O)c(-c6ccc(Cl)cc6)c5s4)cc23)C1 (stereo partly drawn) [Compound 75, (S)-2-(tert-butoxy)-2-(7-(4-chlorophenyl)-2-(3-((R)-1-(2-methoxyacetyl)pyrrolidin-3-yl)-1-methyl-1H-indazol-5-yl)-5-methylbenzo[d]thiazol-6-yl)acetic acid] | 16 | 423 | 496 |  |  |  | 
COCC(=O)N1CCC(c2nn(C)c3ccc(-c4nc5cc(C)c([C@H](OC(C)(C)C)C(=O)O)c(-c6ccc(Cl)cc6)c5s4)cc23)C1 (stereo partly drawn) [Compound 76, (S)-2-(tert-butoxy)-2-(7-(4-chlorophenyl)-2-(3-((S)-1-(2-methoxyacetyl)pyrrolidin-3-yl)-1-methyl-1H-indazol-5-yl)-5-methylbenzo[d]thiazol-6-yl)acetic acid] |  |  |  | 16 | 510 | 906 | 
Cc1cc2nc(-c3ccc4c(c3)c(N3CCNC3=O)nn4C)sc2c(-c2ccc(Cl)cc2)c1[C@H](OC(C)(C)C)C(=O)O [Compound 78, (S)-2-(tert-butoxy)-2-(7-(4-chlorophenyl)-5-methyl-2-(1-methyl-3-(2-oxoimidazolidin-1-yl)-1H-indazol-5-yl)benzo[d]thiazol-6-yl)acetic acid] | 32 | 2690 | 3190 |  |  |  | 
COCCN1CCN(c2nn(C)c3ccc(-c4nc5cc(C)c([C@H](OC(C)(C)C)C(=O)O)c(-c6ccc(Cl)cc6)c5s4)cc23)C1=O [Compound 79, (S)-2-(tert-butoxy)-2-(7-(4-chlorophenyl)-2-(3-(3-(2-methoxyethyl)-2-oxoimidazolidin-1-yl)-1-methyl-1H-indazol-5-yl)-5-methylbenzo[d]thiazol-6-yl)acetic acid] | 7 | 2320 | 2180 |  |  |  | 
CCN1CCN(c2nn(C)c3ccc(-c4nc5cc(C)c([C@H](OC(C)(C)C)C(=O)O)c(-c6ccc(Cl)cc6)c5s4)cc23)C1=O [Compound 82, (S)-2-(tert-butoxy)-2-(7-(4-chlorophenyl)-2-(3-(3-ethyl-2-oxoimidazolidin-1-yl)-1-methyl-1H-indazol-5-yl)-5-methylbenzo[d]thiazol-6-yl)acetic acid] | 14 | 3090 | 3870 |  |  |  | 
Cc1cc2nc(-c3ccc4c(c3)c(N3CCN(CCN5CCOCC5)C3=O)nn4C)sc2c(-c2ccc(Cl)cc2)c1[C@H](OC(C)(C)C)C(=O)O [Compound 83, (S)-2-(tert-butoxy)-2-(7-(4-chlorophenyl)-5-methyl-2-(1-methyl-3-(3-(2-morpholinoethyl)-2-oxoimidazolidin-1-yl)-1H-indazol-5-yl)benzo[d]thiazol-6-yl)acetic acid] | 17 | 2230 | 2810 |  |  |  | 
CCN1CCN(c2nn(C)c3ccc(-c4nc5cc(C)c([C@H](OC(C)(C)C)C(=O)O)c(-c6ccc(Cl)cc6)c5s4)cc23)CC1=O [Compound 84, (S)-2-(tert-butoxy)-2-(7-(4-chlorophenyl)-2-(3-(4-ethyl-3-oxopiperazin-1-yl)-1-methyl-1H-indazol-5-yl)-5-methylbenzo[d]thiazol-6-yl)acetic acid] | 48 | 1250 | 1870 |  |  |  | 
Cc1cc2nc(-c3ccc4c(c3)c(N3CCN(C)C(=O)C3)nn4C)sc2c(-c2ccc(Cl)cc2)c1[C@H](OC(C)(C)C)C(=O)O [Compound 85, (S)-2-(tert-butoxy)-2-(7-(4-chlorophenyl)-5-methyl-2-(1-methyl-3-(4-methyl-3-oxopiperazin-1-yl)-1H-indazol-5-yl)benzo[d]thiazol-6-yl)acetic acid] | 57 | 1350 | 1170 |  |  |  | 
CCN1CCN(c2nn(C)c3ccc(-c4nc5cc(C)c([C@H](OC(C)(C)C)C(=O)O)c(-c6ccc(Cl)cc6)c5s4)cc23)C(=O)C1 [Compound 86, (S)-2-(tert-butoxy)-2-(7-(4-chlorophenyl)-2-(3-(4-ethyl-2-oxopiperazin-1-yl)-1-methyl-1H-indazol-5-yl)-5-methylbenzo[d]thiazol-6-yl)acetic acid] | 15 | 2330 | 2000 |  |  |  | 
Cc1cc2nc(-c3ccc4c(c3)c(N3CC(N5CCOCC5)C3)nn4C)sc2c(-c2ccc(Cl)cc2)c1[C@H](OC(C)(C)C)C(=O)O [Compound 88, (S)-2-(tert-butoxy)-2-(7-(4-chlorophenyl)-5-methyl-2-(1-methyl-3-(3-morpholinoazetidin-1-yl)-1H-indazol-5-yl)benzo[d]thiazol-6-yl)acetic acid] | 10 | 1240 | 1700 |  |  |  | 
Cc1cc2nc(-c3ccc4c(c3)c(N3CC5(CN(C)C5)C3)nn4C)sc2c(-c2ccc(Cl)cc2)c1[C@H](OC(C)(C)C)C(=O)O [Compound 89, (S)-2-(tert-butoxy)-2-(7-(4-chlorophenyl)-5-methyl-2-(1-methyl-3-(6-methyl-2,6-diazaspiro[3.3]heptan-2-yl)-1H-indazol-5-yl)benzo[d]thiazol-6-yl)acetic acid] | 107 | 57000 | 57000 |  |  |  | 
Cc1cc2nc(-c3ccc4c(c3)c(N3CC(N(C)C)C3)nn4C)sc2c(-c2ccc(Cl)cc2)c1[C@H](OC(C)(C)C)C(=O)O [Compound 90, (S)-2-(tert-butoxy)-2-(7-(4-chlorophenyl)-2-(3-(3-(dimethylamino)azetidin-1-yl)-1-methyl-1H-indazol-5-yl)-5-methylbenzo[d]thiazol-6-yl)acetic Acid] | 8 | 1180 | 1350 |  |  |  | 
Cc1cc2nc(-c3ccc4c(c3)c(N3CC5(COC5)C3)nn4C)sc2c(-c2ccc(Cl)cc2)c1[C@H](OC(C)(C)C)C(=O)O [Compound 91, (S)-2-(tert-butoxy)-2-(7-(4-chlorophenyl)-5-methyl-2-(1-methyl-3-(2-oxa-6-azaspiro[3.3]heptan-6-yl)-1H-indazol-5-yl)benzo[d]thiazol-6-yl)acetic acid] | 11 | 1720 | 2440 |  |  |  | 
Cc1cc2nc(-c3ccc4c(c3)c(N3CC[C@H](N(C)C)C3)nn4C)sc2c(-c2ccc(Cl)cc2)c1[C@H](OC(C)(C)C)C(=O)O [Compound 93, (S)-2-(tert-butoxy)-2-(7-(4-chlorophenyl)-2-(3-((S)-3-(dimethylamino)pyrrolidin-1-yl)-1-methyl-1H-indazol-5-yl)-5-methylbenzo[d]thiazol-6-yl)acetic acid] | 13 | 1010 | 3450 |  |  |  | 
CN[C@H]1CCN(c2nn(C)c3ccc(-c4nc5cc(C)c([C@H](OC(C)(C)C)C(=O)O)c(-c6ccc(Cl)cc6)c5s4)cc23)C1 [Compound 94, (S)-2-(tert-butoxy)-2-(7-(4-chlorophenyl)-5-methyl-2-(1-methyl-3-((S)-3-(methylamino)pyrrolidin-1-yl)-1H-indazol-5-yl)benzo[d]thiazol-6-yl)acetic acid] | 38 | 2720 | 2520 |  |  |  | 
CN[C@@H]1CCN(c2nn(C)c3ccc(-c4nc5cc(C)c([C@H](OC(C)(C)C)C(=O)O)c(-c6ccc(Cl)cc6)c5s4)cc23)C1 [Compound 95, (S)-2-(tert-butoxy)-2-(7-(4-chlorophenyl)-5-methyl-2-(1-methyl-3-((R)-3-(methylamino)pyrrolidin-1-yl)-1H-indazol-5-yl)benzo[d]thiazol-6-yl)acetic acid] | 41 | 1750 | 11500 |  |  |  | 
Cc1cc2nc(-c3ccc4c(c3)c(N3CC5(CCCCC5)C3)nn4C)sc2c(-c2ccc(Cl)cc2)c1[C@H](OC(C)(C)C)C(=O)O [Compound 97, (S)-2-(tert-butoxy)-2-(7-(4-chlorophenyl)-5-methyl-2-(1-methyl-3-(2-azaspiro[3.5]nonan-2-yl)-1H-indazol-5-yl)benzo[d]thiazol-6-yl)acetic acid] | 150 | 6810 | 9190 |  |  |  | 
Cc1cc2nc(-c3ccc4c(c3)c(N3CC5CC(C3)N5C)nn4C)sc2c(-c2ccc(Cl)cc2)c1[C@H](OC(C)(C)C)C(=O)O [Compound 101, (2S)-2-(tert-butoxy)-2-(7-(4-chlorophenyl)-5-methyl-2-(1-methyl-3-(6-methyl-3,6-diazabicyclo[3.1.1]heptan-3-yl)-1H-indazol-5-yl)benzo[d]thiazol-6-yl)acetic Acid] |  | 57000 | 57000 |  |  |  | 58
COC(=O)N(C)C1CN(c2nn(C)c3ccc(-c4nc5cc(C)c([C@H](OC(C)(C)C)C(=O)O)c(-c6ccc(Cl)cc6)c5s4)cc23)C1 [Compound 102, (S)-2-(tert-butoxy)-2-(7-(4-chlorophenyl)-2-(3-(3-((methoxycarbonyl)(methyl)amino)azetidin-1-yl)-1-methyl-1H-indazol-5-yl)-5-methylbenzo[d]thiazol-6-yl)acetic acid] | 13 | 934 | 1270 |  |  |  | 
Cc1cc2nc(-c3ccc4c(c3)c(N3CCN(C5COC5)CC3)nn4C)sc2c(-c2ccc(Cl)cc2)c1[C@H](OC(C)(C)C)C(=O)O [Compound 104, (S)-2-(tert-butoxy)-2-(7-(4-chlorophenyl)-5-methyl-2-(1-methyl-3-(4-(oxetan-3-yl)piperazin-1-yl)-1H-indazol-5-yl)benzo[d]thiazol-6-yl)acetic acid] | 11 | 491 | 904 |  |  |  | 
